Converted amounts (≈) assume the structure as drawn. Like-named read-outs stand apart in the source and are kept apart here.
Columns and labels:
[1] = system: adriamycin-resistant P388; assay: Cytotoxicity test on adriamycin-resistant P388 (P388/ADR) (MTT, 72 h); format: cell-based
Procedure: Cultured tumor cell lines P388 and P388/ADR were suspended in RPMI1640 medium containing 10% heat inactivated fetal calf serum (FCS) and 20 μM 2-mercaptoethanol whereby a cell suspension (5×10^4 cells/ml) was prepared.
A sample examined was dissolved in methanol, then diluted with RPMI 1640 medium and subjected to serial 2-fold dilution starting at the concentration of 0.1 mg/ml. 180 μl of the cell suspension and 20 μl of the sample solution were added into a 96-well micro-titer plate and incubated at 37° C. in wet 5% CO2 gas/95% air. 72 hours thereafter, cell growth was measured by a calorimetric assay method using 3-(4,5-dimethyl-2-thiazolyl)-2,5-diphenyl-2H-tetrazolium bromide (MTT) as follows: 20 μl of 2 mg/ml MTT solution was added to each well and the cells were incubated for 4 hours at 37° C. Thereafter, 50 μl of 50% dimethylformamide solution containing 20% sodium dodecyl sulfate was added to each well and allowed to stand, so that the formed violet formazan crystal was dissolved, and its absorbance at 570 nm was measured in a microplate absorbance photometer (Immunoreader) and used as an indicator of the growth. The result was expressed in terms of the concentration of a sample at which growth was inhibited by 50% (IC50), which was determined from the relationship between sample concentrations and degrees of inhibition calculated using the following equation (1):
Degree of inhibition=[1-(absorbance in presence of sample)/(absorbance in
absence of sample)]×100 (1)

[2] = system: P388; assay: Mouse in vivo antitumor test, P388 transplanted
Procedure: 2×10^5 cells of P388 or P388/ADR were inoculated intraperitoneally into each of CDF1 mice (male, each weighing 20 g, 10 animals/group), and from the next day, the test solution was administered at 10, 5, and 1 mg/kg body weight/day respectively by intraperitoneal injection of 200 μl sample at each concentration once a day for 10 successive days. The numbers with time of mice which survived after administration was counted and the average survival days and T/C (survival days of treated mice/survival days of control mice) were calculated. The average body weights after 10 days were also measured.

[3] = system: cytotoxic T cell induction by allogenic immunization; assay: In vivo mouse cytotoxic T cell induction test; design: species or system mouse (C57BL/6)
Procedure: A 8-week-old, female C57BL/6 mouse (H-2^b) was immunized intraperitoneally with 0.2 ml of cultured cell line P815 suspension (5×10^7 cells/ml PBS) derived from DBA/2 (H-2^d), and 0.2 to 0.3 ml of 0.1 mg/ml sample was administered intraperitoneally at a dosage of 1 mg/kg body weight/day for 5 days including the day of immunization.
To measure cytotoxic T cell activity, 100 μl of the effector cell suspension and 100 μl of the target cell suspension were put to each well on a 96-well round-bottomed microplate and incubated at 37° C. for 4 hours, and the cells were centrifuged and the amount of ^51 Cr released into the supernatant was measured and the cytotoxic T cell activity was calculated using the following equation 2:
Cytotoxic T cell activity=A/B×100 (2)
A: (radioactivity of effector cells+target cells)-(radioactivity of only target cells)
B: (radioactivity of target cells treated with 0.1 N HCl)-(radioactivity of only target cells)
The cytotoxic T cell activity was expressed in terms of lytic unit (LU). One LU is defined as the number of effector cells required for 20% lysis of 2×10^4 target cells, and the result is shown in LU per spleen.
Similarly, the mouse was immunized and then administered 0.2 to 0.3 ml of 1 mg/ml of the sample (i.e. at a dosage of 10 mg/kg body weight/day) by intraperitoneal administration for 5 days and the cytotoxic activity was determined.

[4] = Repeated administration toxicity test (intraperitoneal); format: in vivo, mouse (CDF1); details: mouse, in vivo, ip, read-out: Fatality rate
Procedure: (§1) As the comparative control, test solutions of adriamycin were prepared in the same manner. […] The number with time of survived animals after administration and the average body weights on Days 0, 5, and 10 were determined.

[5] = system: CDF1 mice; assay: as above; format: in vivo, mouse (CDF1); details: for Body weight, Day 0: Day 0 (baseline)
Procedure: as §1

[6] = P388, 1 mg/kg/day i.p. × 10 days
[7] = P388, 5 mg/kg/day i.p. × 10 days
[8] = P388, 10 mg/kg/day i.p. × 10 days

COC(CC1C(C)=CCC2C1(C)CCC1C(C)(C)C(O)C(OC3OC(C)C(OC(=O)c4cccc(O)c4)C(OC4OC(CO)C(O)C(O)C4NC(C)=O)C3O)CC12C)C(N)C(=O)O (centres unmarked) [0406TP-1]
IC50 ([1]; Mus musculus, adriamycin-resistant P388, 72 h, MTT, read-out: IC50 (growth inhibition)): 0.22 µg/mL (≈ 0.246 µM)
inhibition on growth of adriamycin-resistant cells ([1]; in words): strong inhibition
T/C [2, 6]: 123%
average body weight after 10 days [2, 6]: 25.9 g
average survival days [2, 6]: 12.7 days
T/C [2, 7]: 123%
average body weight after 10 days [2, 7]: 26.3 g
average survival days [2, 7]: 12.7 days
T/C [2, 8]: 128%
average body weight after 10 days [2, 8]: 27.3 g
average survival days [2, 8]: 13.2 days
therapeutic effect (improvement in survival rate) ([2]; P388-transplanted mice, adriamycin 1 mg/kg/day vs 0406TP-1): same degree of therapeutic effect
Cytotoxic T cell activity ([3]; 1.0 mg/kg/day × 5 days i.p.): 350 LU/spleen
Cytotoxic T cell activity inhibition ([3]; 1.0 mg/kg/day × 5 days i.p.): 12%
Cytotoxic T cell activity ([3]; 10 mg/kg/day × 5 days i.p.): 285 LU/spleen
Cytotoxic T cell activity inhibition ([3]; 10 mg/kg/day × 5 days i.p.): 38%
inhibition of induction of cytotoxic T cells in spleen cells ([3]; allogenic-immunized mouse, intraperitoneal, in words): inhibit induction of cytotoxic T cells
mortality ([4]; 1 mg/kg/day i.p. × 10 days): 0%
mortality ([4]; 5 mg/kg/day i.p. × 10 days): 0%
mortality ([4]; 10 mg/kg/day i.p. × 10 days): 0%
Body weight, Day 0 ([5]; 1 mg/kg/day i.p. group): 22.0 g
Body weight, Day 5 ([5]; 1 mg/kg/day i.p.): 23.1 g
Body weight, Day 10 ([5]; 1 mg/kg/day i.p.): 25.0 g
Body weight, Day 0 ([5]; 5 mg/kg/day i.p. group): 21.8 g
Body weight, Day 5 ([5]; 5 mg/kg/day i.p.): 23.7 g
Body weight, Day 10 ([5]; 5 mg/kg/day i.p.): 25.5 g
Body weight, Day 0 ([5]; 10 mg/kg/day i.p. group): 21.4 g
Body weight, Day 5 ([5]; 10 mg/kg/day i.p.): 23.6 g
Body weight, Day 10 ([5]; 10 mg/kg/day i.p.): 25.4 g
